22 compounds from US20220289679A1, “HETEROCYCLIC COMPOUND” (Takeda Pharmaceutical Company Limited, priority 2019, published 2022) can be followed below.

In this experiment the target is T1, human GCS (glucosylceramide synthase) (Homo sapiens, UniProt Q16739).
T1 construct: made in house; host or cells: Expi293F cells (transient expression; microsome fraction)
T1 sequence (Q16739 1-394): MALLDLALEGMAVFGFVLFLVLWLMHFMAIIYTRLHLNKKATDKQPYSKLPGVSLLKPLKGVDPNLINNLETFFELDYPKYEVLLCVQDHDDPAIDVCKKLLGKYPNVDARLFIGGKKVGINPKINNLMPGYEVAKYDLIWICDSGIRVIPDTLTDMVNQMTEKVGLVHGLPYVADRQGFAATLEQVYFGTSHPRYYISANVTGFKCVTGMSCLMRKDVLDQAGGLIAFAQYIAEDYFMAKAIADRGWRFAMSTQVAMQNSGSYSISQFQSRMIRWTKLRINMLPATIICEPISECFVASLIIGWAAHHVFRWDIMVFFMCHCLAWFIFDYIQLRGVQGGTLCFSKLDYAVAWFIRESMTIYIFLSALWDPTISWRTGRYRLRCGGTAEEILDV
Put plainly: Glucosylceramide Synthase (GCS) Assay. To be noted: test compound 10 μM; microsome fraction of Expi293F cells expressing human GCS; 1.7 μM UDP-glucose, 3 μM C8 ceramide; room temperature 60 min; C8 glucosylceramide by Rapidfire MS/MS; read-out: GCS enzyme inhibitory rate at 10 μM (%). It is filed as biochemical. On the procedure:
In enzyme assay, a microsome fraction obtained by transient expression by Expi293F™ cells (catalog number: A14527, Thermo Fisher Scientific) was used as a glucosylceramide synthase source. Liposomal C8 ceramide and UDP-glucose were used as substrates. For each substrate concentration, 1.7 μM UDP-glucose, which is equal to the Km value, and 3 μM C8 ceramide were used. After the enzymatic reaction, the analysis was performed with Rapidfire MS/MS (API-4000™, SCIEX), and C8 glucosylceramide was quantified to evaluate the inhibitory activity of the test compound against glucosylceramide synthase activity.
PcDNA3.3TOPO vector (catalog number: K830001, Thermo Fisher Scientific) into which the human GCS gene was inserted was introduced into Expi293F™ Cells (catalog number: A14527, Thermo Fisher Scientific) by using ExpiFectamine™ 293 Transfection Kit (catalog number: A14525, Thermo Fisher Scientific). The cultured cells were dissolved in D-PBS (catalog number: 048-29805, Fuji Film Wako Pure Chemical Industries, Ltd.) containing 1 mM PMSF, and the solution was allowed to stand on ice for 30 minutes, and then subjected to cell disruption (homogenized). The disruption solution was centrifuged at 10,000×g for 20 minutes at 4° C., and the obtained supernatant was centrifuged at 142,400×g for 60 minutes at 4° C. The obtained precipitate was resuspended in a D-PBS solution containing 1 mM PMSF, and homogenized again to prepare as a microsome fraction. Protein quantification was performed by the CBB method.
A 1 mM compound solution prepared by dissolving the test compound in DMSO was added to a 384-well plate by 100 nL so that the final concentration of the test compound was 10 μM. Next, a substrate solution consisting of 3.4 μM UDP-glucose and 6 μM C8 ceramide was added by 5 μL, followed by an enzyme solution consisting of a 25 μg/mL microsome fraction by 5 μL. C8 ceramide was prepared from liposomes composed of 15 mol % C8 ceramide and 85 mol % dioleoyl phosphatidylcholine (1,2-dioleoyl-sn-glycero-3-phosphocholine: DOPC). The enzymatic reaction was carried out in a solution consisting of 20 mM tris-hydrochloric acid buffer (pH 7.5), 0.01% Tween 20, 0.01% bovine serum albumin and 1 mM dithiothreitol at room temperature for 60 min. Then, a solution consisting of 75% isopropanol and 1% formic acid containing 0.25 μM N-Octadecanoyl-D35-psichosine (catalog number: 1914, Matreya) as an internal standard substance was added by 60 μL to stop the enzymatic reaction. 5 μL of the centrifugal supernatant of the obtained reaction product was analyzed by Rapidfire MS/MS (Agilent Technologies) using API-4000™ (SCIEX), and the C8 glucosylceramide was quantified to evaluate the inhibitory activity of the test compound against the glucosylceramide synthase activity. The inhibitory activity of the test compound was evaluated when the C8 glucosylceramide level in the enzyme-free solution was considered as 100% inhibitory and the enzyme activity of the DMSO group in the absence of the compound was considered as 0% inhibitory.
With `Cc1cc(C(=O)Nc2ccc(C(O)(C(F)F)C(F)F)cc2F)c(=O)n(-c2ccccc2OCC(F)F)n1` [Example 156, 2-[2-(2,2-difluoroethoxy)phenyl)-N-[2-fluoro-4-(1,1,3,3-tetrafluoro-2-hydroxypropan-2-yl)phenyl]-6-methyl-3-oxo-2,3-dihydropyridazine-4-carboxamide], the inhibition at 10 µM turned out to be 100%.
On to `CC(C)(O)COc1cc(F)ccc1-n1cccc(C(=O)Nc2ccc(OCC(F)(F)F)nc2)c1=O` [Example 67, 1-[4-fluoro-2-(2-hydroxy-2-methylpropoxy)phenyl]-2-oxo-N-[6-(2,2,2-trifluoroethoxy)pyridin-3-yl]-1,2-dihydropyridine-3-carboxamide], for which the inhibition at 10 µM was found to be 89%.
The value for `CC(C)(O)c1ccc(NC(=O)c2ccnn(-c3ccccc3OCC(F)F)c2=O)c(F)c1` [Example 147, 2-[2-(2,2-difluoroethoxy)phenyl]-N-[2-fluoro-4-(2-hydroxypropan-2-yl)phenyl]-3-oxo-2,3-dihydropyridazine-4-carboxamide] was 100%; that for `CC(C)(O)c1ccc(NC(=O)c2cccn(-c3cc(F)ccc3OCC(F)(F)F)c2=O)cc1` [Example 113, 1-[5-fluoro-2-(2,2,2-trifluoroethoxy)phenyl]-N-[4-(2-hydroxypropan-2-yl)phenyl]-2-oxo-1,2-dihydropyridine-3-carboxamide] was 98%; that for `O=C(Nc1ccc(C(F)(F)F)nn1)c1cccn(-c2ccc(F)cc2OCC(F)(F)F)c1=O` [Example 38, 1-[4-fluoro-2-(2,2,2-trifluoroethoxy)phenyl]-2-oxo-N-[6-(trifluoromethyl)pyridazin-3-yl]-1,2-dihydropyridine-3-carboxamide] was 97%.
For `CC(C)(O)COc1ccc(NC(=O)c2cccn(-c3ccc(F)cc3OCC(F)(F)F)c2=O)cc1` [Example 60, 1-[4-fluoro-2-(2,2,2-trifluoroethoxy)phenyl]-N-[4-(2-hydroxy-2-methylpropoxy)phenyl]-2-oxo-1,2-dihydropyridine-3-carboxamide] the value was 92%.
For `O=C(Nc1ccc(OCCC(F)(F)F)nc1)c1cccn(-c2ccc(F)cc2OCC(F)(F)F)c1=O` [Example 64, 1-[4-fluoro-2-(2,2,2-trifluoroethoxy)phenyl]-2-oxo-N-[6-(3,3,3-trifluoropropoxy)pyridin-3-yl]-1,2-dihydropyridine-3-carboxamide] the value was 99%.
Consider `N#Cc1cc(F)ccc1-n1cccc(C(=O)Nc2ccc(OCC(F)(F)F)nc2)c1=O` [Example 52, 1-(2-cyano-4-fluorophenyl)-2-oxo-N-[6-(2,2,2-trifluoroethoxy)pyridin-3-yl]-1,2-dihydropyridine-3-carboxamide], for which the inhibition at 10 µM stood at 85%.
For `COc1ccccc1-n1cccc(C(=O)Nc2ccc(Oc3ccccc3)cc2)c1=O` [Example 2, 1-(2-methoxyphenyl)-2-oxo-N-(4-phenoxyphenyl)-1,2-dihydropyridine-3-carboxamide] the value was 95%; for `Cc1cc(C(=O)Nc2ccc(C(C)(C)O)cn2)c(=O)n(-c2ccccc2OCC(F)F)n1` [Example 137, 2-[2-(2,2-difluoroethoxy)phenyl]-N-[5-(2-hydroxypropan-2-yl)pyridin-2-yl]-6-methyl-3-oxo-2,3-dihydropyridazine-4-carboxamide], 99%.
As to `O=C(Nc1ccc(OCC(F)(F)F)nc1)c1cccn(-c2ccc(F)cc2N2CCOCC2)c1=O` [Example 25, 1-[4-fluoro-2-(morpholin-4-yl)phenyl]-2-oxo-N-[6-(2,2,2-trifluoroethoxy)pyridin-3-yl]-1,2-dihydropyridine-3-carboxamide], the inhibition at 10 µM was found to be 81%.
For `N#Cc1ccc(NC(=O)c2cccn(-c3ccc(F)cc3OCC(F)(F)F)c2=O)cc1` [Example 41, N-(4-cyanophenyl)-1-[4-fluoro-2-(2,2,2-trifluoroethoxy)phenyl]-2-oxo-1,2-dihydropyridine-3-carboxamide] the value was 88%.
The value for `CCOC(=O)c1cc(C(=O)Nc2ccc(OC(F)F)cc2)c(=O)n(-c2ccccc2OCC(F)(F)F)n1` [Example 198, ethyl 5-{[4-(difluoromethoxy)phenyl]carbamoyl}-6-oxo-1-[2-(2,2,2-trifluoroethoxy)phenyl]-1,6-dihydropyridazine-3-carboxylate] was 98%.
Regarding `O=C(Nc1ccc(C(O)(C(F)F)C(F)F)nc1)c1cn(C2CCOC2)nc(-c2ccccc2OCC(F)F)c1=O` (racemic) [Example 195, rac-6-[2-(2,2-difluoroethoxy)phenyl]-5-oxo-2-(oxolan-3-yl)-N-[6-(1,1,3,3-tetrafluoro-2-hydroxypropan-2-yl)pyridin-3-yl]-2,5-dihydropyridazine-4-carboxamide], the inhibition at 10 µM stood at 100%.
As to `O=C(Nc1ccc(Oc2ccccc2)cc1)c1cccn(-c2ccc(F)cc2N2CCOCC2)c1=O` [Example 17, 1-[4-fluoro-2-(morpholin-4-yl)phenyl]-2-oxo-N-(4-phenoxyphenyl)-1,2-dihydropyridine-3-carboxamide], the inhibition at 10 µM stood at 81%.
In the case of `O=C(Nc1ccc(C(O)(C(F)F)C(F)F)cc1)c1cn(C(F)F)nc(-c2ccccc2OCC(F)F)c1=O` [Example 163, 6-[2-(2,2-difluoroethoxy)phenyl]-2-(difluoromethyl)-5-oxo-N-[4-(1,1,3,3-tetrafluoro-2-hydroxypropan-2-yl)phenyl]-2,5-dihydropyridazine-4-carboxamide], the inhibition at 10 µM worked out at 100%.
`O=C(Nc1ccc(C(F)F)nc1)c1cccn(-c2ccc(F)cc2OCC(F)(F)F)c1=O` [Example 49, N-[6-(difluoromethyl)pyridin-3-yl]-1-[4-fluoro-2-(2,2,2-trifluoroethoxy)phenyl]-2-oxo-1,2-dihydropyridine-3-carboxamide]: the inhibition at 10 µM came out at 97%.
For `Cn1cc(C(=O)Nc2ccc(OCC(C)(C)O)cc2)c(=O)c(-c2ccccc2OCC(F)F)n1` [Example 164, 6-[2-(2,2-difluoroethoxy)phenyl]-N-[4-(2-hydroxy-2-methylpropoxy)phenyl]-2-methyl-5-oxo-2,5-dihydropyridazine-4-carboxamide], the inhibition at 10 µM came to 94%.
For `O=C(Nc1ccc(OCC(F)(F)F)nc1)c1cncn(-c2ccc(F)cc2OCC(F)(F)F)c1=O` [Example 93, 1-[4-fluoro-2-(2,2,2-trifluoroethoxy)phenyl]-6-oxo-N-[6-(2,2,2-trifluoroethoxy)pyridin-3-yl]-1,6-dihydropyrimidine-5-carboxamide] the value was 99%; for `CC(C)(O)c1ccc(NC(=O)c2cn(C3COC3)nc(-c3ccccc3OCC(F)F)c2=O)cc1` [Example 183], 100%.
For `CC(O)(c1ccc(NC(=O)c2cccn(-c3ccnnc3OCC(F)(F)F)c2=O)cn1)C(F)(F)F` (racemic) [Example 121, rac-2-oxo-1-[3-(2,2,2-trifluoroethoxy)pyridazin-4-yl]-N-[6-(1,1,1-trifluoro-2-hydroxypropan-2-yl)pyridin-3-yl]-1,2-dihydropyridine-3-carboxamide] the value was 90%; for `CC(C)(O)c1ccc(NC(=O)c2cccn(-c3ccnnc3OCC(F)(F)F)c2=O)cc1` [Example 90, N-[4-(2-hydroxypropan-2-yl)phenyl]-2-oxo-1-[3-(2,2,2-trifluoroethoxy)pyridazin-4-yl]-1,2-dihydropyridine-3-carboxamide], 90%.
